Reference: patent US20230123334A1, “AMINO LIPID COMPOUND, PREPARATION METHOD THEREFOR, AND APPLICATION THEREOF” (SHENZHEN SHENXIN BIOTECHNOLOGY CO., LTD., priority 2020, published 2023)

Tested on: HEK293 cells
Assay: Preliminary screening as DNA vectors, GFP transfection of HEK293 cells
Type: cell-based
Details: amino lipid/DOPE liposome with 75 ng plasmid DNA (psin-EGFP-IRES-Puro); number of GFP-expressing cells divided by total nuclei (Hoechst)
Outline: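 First, amino lipid and DOPE were vortexed in sodium acetate buffer (pH 5.6) to form liposomes. Next, these were held with 75 ng EGFP plasmid at room temperature for 30 min. Finally, HEK293 cells were added, cultured at 37° C., Hoechst-stained, and GFP+/total nuclei scored by imaging.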

Row | SMILES | Absolute DNA transfection efficiency in HEK293 cells [%]
1 | CCCCCCCCCCCCNc1nc(NCCN2CCCCC2)nc(SCCCCCCCCCCC)n1 [S11N12 D4] | 3.4
2 | CCCCCCCCCCCCNc1nc(NCCN2CCN(C)CC2)nc(SCCCCCCCCCCC)n1 [S11N12 D5] | 14.1
3 | CCCCCCCCCCCCNc1nc(NCCCN(C)C)nc(SCCCCCCCCCCC)n1 [S11N12 D6] | 18.8
4 | CCCCCCCCCCCCNc1nc(NCCN(CC)CC)nc(SCCCCCCCCCCC)n1 [S11N12 D7] | 9.8
5 | CCCCCCCCCCCCNc1nc(NCCCN2CCOCC2)nc(SCCCCCCCCCCC)n1 [S11N12 D8] | 1.5
6 | CCCCCCCCCCCCNc1nc(NCCCN2CCN(C)CC2)nc(SCCCCCCCCCCC)n1 [S11N12 D9] | 5.9
7 | CCCCCCCCCCCCNc1nc(NCC2CCN(C)CC2)nc(SCCCCCCCCCCC)n1 [S11N12 D10] | 4.7
8 | CCCCCCCCCCCCCNc1nc(NCCN(C)C)nc(SCCCCCCCCCCC)n1 [S11N13 D1] | 10.6
9 | CCCCCCCCCCCCCNc1nc(NCCN2CCOCC2)nc(SCCCCCCCCCCC)n1 [S11N13 D2] | 5.5
10 | CCCCCCCCCCCCCNc1nc(NCCN2CCCC2)nc(SCCCCCCCCCCC)n1 [S11N13 D3] | 17.5
11 | CCCCCCCCCCCCCNc1nc(NCCN2CCCCC2)nc(SCCCCCCCCCCC)n1 [S11N13 D4] | 3.5
12 | CCCCCCCCCCCCCNc1nc(NCCN2CCN(C)CC2)nc(SCCCCCCCCCCC)n1 [S11N13 D5] | 8.4
13 | CCCCCCCCCCCCCNc1nc(NCCCN(C)C)nc(SCCCCCCCCCCC)n1 [S11N13 D6] | 13.6
14 | CCCCCCCCCCCCCNc1nc(NCCN(CC)CC)nc(SCCCCCCCCCCC)n1 [S11N13 D7] | 2.8
15 | CCCCCCCCCCCCCNc1nc(NCCCN2CCOCC2)nc(SCCCCCCCCCCC)n1 [S11N13 D8] | 0.9
16 | CCCCCCCCCCCCCNc1nc(NCCCN2CCN(C)CC2)nc(SCCCCCCCCCCC)n1 [S11N13 D9] | 4.9
17 | CCCCCCCCCCCCCNc1nc(NCC2CCN(C)CC2)nc(SCCCCCCCCCCC)n1 [S11N13 D10] | 3.8
18 | CCCCCCCCCCCCCCCNc1nc(NCCN(C)C)nc(SCCCCCCCCCCC)n1 [S11N15 D1] | 12.5
19 | CCCCCCCCCCCCCCCNc1nc(NCCN2CCOCC2)nc(SCCCCCCCCCCC)n1 [S11N15 D2] | 1.3
20 | CCCCCCCCCCCCCCCNc1nc(NCCN2CCCC2)nc(SCCCCCCCCCCC)n1 [S11N15 D3] | 24.5
21 | CCCCCCCCCCCCCCCNc1nc(NCCN2CCCCC2)nc(SCCCCCCCCCCC)n1 [S11N15 D4] | 9.0
22 | CCCCCCCCCCCCCCCNc1nc(NCCN2CCN(C)CC2)nc(SCCCCCCCCCCC)n1 [S11N15 D5] | 9.9
23 | CCCCCCCCCCCCCCCNc1nc(NCCCN(C)C)nc(SCCCCCCCCCCC)n1 [S11N15 D6] | 8.2
24 | CCCCCCCCCCCCCCCNc1nc(NCCN(CC)CC)nc(SCCCCCCCCCCC)n1 [S11N15 D7] | 5.2

Row | SMILES | Absolute DNA transfection efficiency in HEK293 cells [%]
25 | CCCCCCCCCCCCCCCNc1nc(NCCCN2CCOCC2)nc(SCCCCCCCCCCC)n1 [S11N15 D8] | 0.1
26 | CCCCCCCCCCCCCCCNc1nc(NCCCN2CCN(C)CC2)nc(SCCCCCCCCCCC)n1 [S11N15 D9] | 7.0
27 | CCCCCCCCCCCCCCCNc1nc(NCC2CCN(C)CC2)nc(SCCCCCCCCCCC)n1 [S11N15 D10] | 7.0
28 | CCCCCCCCCCCCCCCCNc1nc(NCCN(C)C)nc(SCCCCCCCCCCC)n1 [S11N16 D1] | 8.2
29 | CCCCCCCCCCCCCCCCNc1nc(NCCN2CCOCC2)nc(SCCCCCCCCCCC)n1 [S11N16 D2] | 3.5
30 | CCCCCCCCCCCCCCCCNc1nc(NCCN2CCCC2)nc(SCCCCCCCCCCC)n1 [S11N16 D3] | 13.8
31 | CCCCCCCCCCCCCCCCNc1nc(NCCN2CCCCC2)nc(SCCCCCCCCCCC)n1 [S11N16 D4] | 4.4
32 | CCCCCCCCCCCCCCCCNc1nc(NCCN2CCN(C)CC2)nc(SCCCCCCCCCCC)n1 [S11N16 D5] | 6.8
33 | CCCCCCCCCCCCCCCCNc1nc(NCCCN(C)C)nc(SCCCCCCCCCCC)n1 [S11N16 D6] | 5.7
34 | CCCCCCCCCCCCCCCCNc1nc(NCCN(CC)CC)nc(SCCCCCCCCCCC)n1 [S11N16 D7] | 1.7
35 | CCCCCCCCCCCCCCCCNc1nc(NCCCN2CCOCC2)nc(SCCCCCCCCCCC)n1 [S11N16 D8] | 0.4
36 | CCCCCCCCCCCCCCCCNc1nc(NCCCN2CCN(C)CC2)nc(SCCCCCCCCCCC)n1 [S11N16 D9] | 6.6
37 | CCCCCCCCCCCCCCCCNc1nc(NCC2CCN(C)CC2)nc(SCCCCCCCCCCC)n1 [S11N16 D10] | 3.9
38 | CCCCCCCCCCCCCCCCCCNc1nc(NCCN(C)C)nc(SCCCCCCCCCCC)n1 [S11N18 D1] | 13.8
39 | CCCCCCCCCCCCCCCCCCNc1nc(NCCN2CCOCC2)nc(SCCCCCCCCCCC)n1 [S11N18 D2] | 2.8
40 | CCCCCCCCCCCCCCCCCCNc1nc(NCCN2CCCC2)nc(SCCCCCCCCCCC)n1 [S11N18 D3] | 32.1
41 | CCCCCCCCCCCCCCCCCCNc1nc(NCCN2CCCCC2)nc(SCCCCCCCCCCC)n1 [S11N18 D4] | 4.4
42 | CCCCCCCCCCCCCCCCCCNc1nc(NCCN2CCN(C)CC2)nc(SCCCCCCCCCCC)n1 [S11N18 D5] | 9.3
43 | CCCCCCCCCCCCCCCCCCNc1nc(NCCCN(C)C)nc(SCCCCCCCCCCC)n1 [S11N18 D6] | 21.7
44 | CCCCCCCCCCCCCCCCCCNc1nc(NCCN(CC)CC)nc(SCCCCCCCCCCC)n1 [S11N18 D7] | 3.4
45 | CCCCCCCCCCCCCCCCCCNc1nc(NCCCN2CCOCC2)nc(SCCCCCCCCCCC)n1 [S11N18 D8] | 4.4
46 | CCCCCCCCCCCCCCCCCCNc1nc(NCCCN2CCN(C)CC2)nc(SCCCCCCCCCCC)n1 [S11N18 D9] | 9.3
47 | CCCCCCCCCCCCCCCCCCNc1nc(NCC2CCN(C)CC2)nc(SCCCCCCCCCCC)n1 [S11N18 D10] | 5.7
